Assay results published in patent US11109593B2, “Isoxazolin-5-one derivative and herbicide containing same as active ingredient” (HOKKO CHEMICAL INDUSTRY CO., LTD., priority 2017, dated 2021).

Tests used:
Type in all cases: in vivo
Scirpus juncoides [1] = assay: Test Example 1: herbicidal effect test by treatment of rice paddy soil (immediately after seeding); conditions: 120 g/10a active ingredient, dry weight vs untreated area, 14 days after treatment
Method in brief: (§1)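 Application occurs immediately after seeding, with diluted emulsion added to paddy water (about 3 cm deep) over puddled, fertilized soil at 120 g active ingredient per 10 ares. Herbicidal rate is calculated from mean dry weight against untreated controls 14 days later.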

[2] = test system: broad leaf weeds (Lindernia pyxidaria and Monochoria vaginalis); assay: as above; conditions: 120 g/10a active ingredient, dry weight vs untreated area, 14 days after treatment
Method in brief: as §1

Echinochloa crus-galli [3] = assay: as above; conditions: 120 g/10a active ingredient, dry weight vs untreated area, 14 days after treatment
Method in brief: as §1

Scirpus juncoides [4] = assay: Test Example 2: herbicidal effect test by treatment during growing period in paddy rice cultivation (seven days after seeding); conditions: 120 g/10a active ingredient, assessed 14 days after treatment, dry weight vs untreated area
Method in brief: (§2)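 Post-emergence paddy water application: compounds were formulated as emulsions, diluted and dropped into flooded pots seven days after sowing at a rate equivalent to 120 g per 10 ares. Efficacy was taken as dry-weight reduction relative to untreated controls after 14 days.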

[5] = test system: broad leaf weeds (Lindernia pyxidaria and Monochoria vaginalis); assay: as above; conditions: 120 g/10a active ingredient, assessed 14 days after treatment, dry weight vs untreated area
Method in brief: as §2

Echinochloa crus-galli [6] = assay: as above; conditions: 120 g/10a active ingredient, assessed 14 days after treatment, dry weight vs untreated area
Method in brief: as §2

Chenopodium album [7] = assay: Test Example 3: herbicidal effect test by treatment of dry field farming soil (one day after seeding); conditions: 120 g/10a active ingredient, evaluated 14 days after treatment
Method in brief: (§3)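 Dry-field alluvium pots; weed seeds incorporated in top 1 cm; soil spray of diluted emulsion 1 d after seeding, 120 g a.i./10 a in 100 L/10 a. Readout: % reduction of dry weight vs untreated, day 14, duplicates.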

Echinochloa crus-galli [8] = assay: as above; conditions: 120 g/10a active ingredient, evaluated 14 days after treatment
Method in brief: as §3

southern crabgrass [9] = assay: as above; conditions: 120 g/10a active ingredient, evaluated 14 days after treatment
Method in brief: as §3

Amaranthus viridis [10] = assay: as above; conditions: 120 g/10a active ingredient, evaluated 14 days after treatment
Method in brief: as §3

Chenopodium album [11] = assay: Test Example 4: herbicidal effect test by treatment of leave and stem in dry field farming (seven days after seeding); conditions: 120 g/10a active ingredient; emulsion sprayed seven days after seeding; evaluated 14 days after treatment
Method in brief: (§4)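 Weeds were seeded at 20 seeds per species into the top 1 cm of alluvial upland soil in pots, then sprayed 7 days after seeding with water-diluted emulsifiable concentrate at 100 L/10 a, giving 120 g active ingredient/10 a. Duplicate pots; herbicidal rate (%) was 14 days post-treatment, from dry weight versus untreated.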

Echinochloa crus-galli [12] = assay: as above; conditions: 120 g/10a active ingredient; emulsion sprayed seven days after seeding; evaluated 14 days after treatment
Method in brief: as §4

southern crabgrass [13] = assay: as above; conditions: 120 g/10a active ingredient; emulsion sprayed seven days after seeding; evaluated 14 days after treatment
Method in brief: as §4

Amaranthus viridis [14] = assay: as above; conditions: 120 g/10a active ingredient; emulsion sprayed seven days after seeding; evaluated 14 days after treatment
Method in brief: as §4

Compound | Herbicidal rate (%) Scirpus juncoides (Scirpus juncoides [1]) [%] | Herbicidal rate (%) Lindernia pyxidaria [2] [%] | Herbicidal rate (%) Monochoria vaginalis [2] [%] | Herbicidal rate (%) Echinochloa crus-galli (Echinochloa crus-galli [3]) [%] | Herbicidal rate (%) Scirpus juncoides (Scirpus juncoides [4]) [%] | Herbicidal rate (%) Lindernia pyxidaria [5] [%] | Herbicidal rate (%) Monochoria vaginalis [5] [%] | Herbicidal rate (%) Echinochloa crus-galli (Echinochloa crus-galli [6]) [%] | herbicidal rate, Chenopodium album (Chenopodium album [7]) [%] | herbicidal rate, Echinochloa crus-galli (Echinochloa crus-galli [8]) [%] | herbicidal rate, southern crabgrass (southern crabgrass [9]) [%] | herbicidal rate, Amaranthus viridis (Amaranthus viridis [10]) [%] | herbicidal effect (herbicidal rate), Chenopodium album (Chenopodium album [11]) [%] | herbicidal effect (herbicidal rate), Echinochloa crus-galli (Echinochloa crus-galli [12]) [%] | herbicidal effect (herbicidal rate), southern crabgrass (southern crabgrass [13]) [%] | herbicidal effect (herbicidal rate), Amaranthus viridis (Amaranthus viridis [14]) [%]
CCNC(=O)N(c1ccccc1Cc1c(C)n(C(C)c2ccccc2)oc1=O)S(=O)(=O)C(F)(F)F (stereo not drawn) [Compound 1-874] | 90 | 90 | 90 | 90 | 90 | 90 | 90 | 90 | 90 | 90 | 90 | 90 | 40 | 90 | 90 | 40
CC(=O)N(c1ccccc1Cc1c(C)n(CC(C)(C)C)oc1=O)S(=O)(=O)C(F)(F)F [Compound 1-298] | 90 | 90 | 90 | 90 | 90 | 90 | 90 | 90 | 90 | 90 | 90 | 90 | 40 | 90 | 90 | 40
CCC(C)n1oc(=O)c(Cc2ccccc2N(C(=O)OCCOC)S(=O)(=O)C(F)(F)F)c1C (stereo not drawn) [Compound 1-731] | 90 | 90 | 90 | 90 | 90 | 90 | 90 | 90 | 90 | 90 | 90 | 90 | 40 | 90 | 90 | 40
CCOC(=O)N(c1ccccc1Cc1c(C)n(CCSC)oc1=O)S(=O)(=O)C(F)(F)F [Compound 1-620] | 90 | 90 | 90 | 90 | 90 | 90 | 90 | 90 | 90 | 90 | 90 | 90 | 40 | 90 | 90 | 40
Cc1c(Cc2ccccc2NS(=O)(=O)C(F)(F)F)c(=O)on1C1CCc2ccccc21 (stereo not drawn) [Compound 1-222] | 90 | 90 | 90 | 100 | 90 | 90 | 90 | 90 | 100 | 100 | 100 | 100 | 50 | 70 | 80 | 40
Cc1c(Cc2ccccc2NS(=O)(=O)C(F)(F)F)c(=O)on1C(C)C [Compound 1-100] | 90 | 100 | 100 | 90 | 90 | 90 | 100 | 90 | 100 | 100 | 100 | 100 | 90 | 90 | 90 | 30
Cc1c(Cc2ccccc2N(S(C)(=O)=O)S(=O)(=O)C(F)(F)F)c(=O)on1C(C)(C)C [Compound 1-889] | 90 | 90 | 90 | 90 | 90 | 90 | 90 | 90 | 90 | 90 | 90 | 90 | 40 | 90 | 90 | 40
C=CC(C)n1oc(=O)c(Cc2ccccc2N(S(=O)(=O)C(F)(F)F)S(=O)(=O)C(F)(F)F)c1C (stereo not drawn) [Compound 1-986] | 90 | 90 | 80 | 90 | 90 | 40 | 70 | 90 | 60 | 100 | 80 | 60 | 40 | 90 | 90 | 60
COC(=O)N(c1ccccc1Cc1c(C)n(CC(C)C)oc1=O)S(=O)(=O)C(F)(F)F [Compound 1-580] | 90 | 90 | 90 | 90 | 90 | 90 | 90 | 90 | 90 | 90 | 90 | 90 | 40 | 90 | 90 | 40
